Patent publication US4257941A, “Polycyclic nitrogen-containing compounds” (BASF Aktiengesellschaft, priority 1976, dated 1981)

Assays:
oats = test: Growth height of oats, greenhouse (Example 10); assay type: in vivo, oats (Flamingskrone); details: for Plant height relative: control 100
Source text: In the greenhouse, the four cereals wheat ("Opal" variety), rye ("Petkuser"), barley ("Villa") and oats ("Flamingskrone") were sown in plastic dishes 11.5 cm in diameter in a sandy loam adequately supplied with nutrients. The active ingredients were applied at various rates to the soil and to the leaves. When applied to the soil, the active ingredient were sprayed onto the surface of the soil on the day of sowing; in the case of leaf treatment, the leaves were sprayed in the usual manner at a growth height of the plants of 10 cm. During the 18 day growth period, the treated plants grew much more slowly than the untreated control, a fact later confirmed by measurements of the stem length. Measurements were taken of 100 plants from each series.
The prior art agent used for comparison purposes was N-2-chloroethyl-N,N,N-trimethylammonium chloride (CCC; German Printed Application DAS No. 1,294,734).

grass or lawns = test: Action on grass or lawns (Example 13); assay type: in vivo; details: for First cutting, dry substance / First cutting, growth height: 19 days after treatment; for First cutting, dry substance relative / First cutting, growth height relative: control 100; for Observations (color): control normal green
Source text: Lawn seed of the standard mixture Agrostis tenius (10%), Cynosurus cristatus (10%), Festuca rubra (15%), Lolium perenne (35%) and Poa praetensis (30%) was sown in a loam in large pots. The soil was fertilized with 1.5 g N as ammonium nitrate and 1 g P2 O5 as secondary potassium phosphate. After the grass had been cut twice, it was sprayed in conventional manner at a height of 4 cm with the active ingredients at various application rates. 19 days after treatment the growth height and dry substance content were determined. The treated grass was much shorter than the control, and produced a correspondingly lower amount of dry substance.
The prior art compound used for comparison purposes was maleic hydrazide (M; German 815,192).

soybeans = test: Soybeans in a vegetation experiment in sandy loam (Example 19); assay type: in vivo, soybean (Gieso variety); details: for Growth height: soil, 4 weeks; for response vs control in vivo at 3000 g/ha / response vs control in vivo at 6000 g/ha: Glycine max, 672 h, control 100, read-out: Growth height relative
Procedure: Soybean plants of the Gieso variety were grown in a neutral sandy loam. Fertilization took place at the time of sowing, with 0.5 g N as ammonium nitrate and 1.0 g P2 O5 as secondary potassium phosphate. […]
After 4 weeks, the treated plants were much shorter than the control, and looked more compact as a result of the different angle of the leaves. The prior art compound used for comparison purposes was 2,3,5-triiodobenzoic acid (T; U.S. Pat. No. 2,978,838).

For `Clc1ccc(N2N=NC3C4CC(C5N=NC45)C32)cc1` (centres unmarked) [drawing 356], the Plant height (oats; soil, 0.5 kg/ha) was 25.0 cm, the Plant height relative (oats; soil, 0.5 kg/ha) was 89.3 and the Plant height (oats; soil, 1.0 kg/ha) was 24.0 cm. The Plant height relative (oats; soil, 1.0 kg/ha) was 85.7, the Plant height (oats; soil, 2.0 kg/ha) was 21.0 cm and the Plant height relative (oats; soil, 2.0 kg/ha) was 75.0. The Plant height (oats; soil, 6.0 kg/ha) was 15.0 cm and the Plant height relative (oats; soil, 6.0 kg/ha) was 53.6.

Molecule `Brc1ccc(N2N=NC3C4CC(C5N=NC45)C32)cc1` (centres unmarked) [drawing 357] has a Plant height (oats; soil, 0.5 kg/ha) of 28.0 cm, a Plant height relative (oats; soil, 0.5 kg/ha) of 100 and a Plant height (oats; soil, 1.0 kg/ha) of 26.5 cm. It also gave a Plant height relative (oats; soil, 1.0 kg/ha) of 94.6, a Plant height (oats; soil, 2.0 kg/ha) of 24.5 cm and a Plant height relative (oats; soil, 2.0 kg/ha) of 87.5. For the same molecule, the Plant height (oats; soil, 6.0 kg/ha) was 15.5 cm and the Plant height relative (oats; soil, 6.0 kg/ha) was 55.4.

`Clc1ccc(N2N=NC3C4CC(C5N=NC45)C32)cc1` (centres unmarked) [drawing 358] gave a Plant height (oats; leaf, 0.125 kg/ha) of 23.5 cm, a Plant height relative (oats; leaf, 0.125 kg/ha) of 83.9 and a Plant height (oats; leaf, 0.5 kg/ha) of 22.5 cm. The Plant height relative (oats; leaf, 0.5 kg/ha) was 80.4, the Plant height (oats; leaf, 1.0 kg/ha) was 21.0 cm and the Plant height relative (oats; leaf, 1.0 kg/ha) was 75.0. It also gave a Plant height (oats; leaf, 2.0 kg/ha) of 19.0 cm, a Plant height relative (oats; leaf, 2.0 kg/ha) of 67.9 and a Plant height (oats; leaf, 4.0 kg/ha) of 17.0 cm. It also gave a Plant height relative (oats; leaf, 4.0 kg/ha) of 60.7.

In the case of `Brc1ccc(N2N=NC3C4CC(C5N=NC45)C32)cc1` (centres unmarked) [drawing 359], the Plant height (oats; leaf, 0.125 kg/ha) was 25.5 cm, the Plant height relative (oats; leaf, 0.125 kg/ha) was 91.1 and the Plant height (oats; leaf, 0.5 kg/ha) was 25.0 cm. It also gave a Plant height relative (oats; leaf, 0.5 kg/ha) of 89.3, a Plant height (oats; leaf, 1.0 kg/ha) of 22.5 cm and a Plant height relative (oats; leaf, 1.0 kg/ha) of 80.4. It also gave a Plant height (oats; leaf, 2.0 kg/ha) of 22.5 cm, a Plant height relative (oats; leaf, 2.0 kg/ha) of 80.4 and a Plant height (oats; leaf, 4.0 kg/ha) of 22.0 cm. The Plant height relative (oats; leaf, 4.0 kg/ha) was 78.6.

In the case of `Clc1ccc(N2N=NC3C4CC(C5N=NC45)C32)cc1` (centres unmarked) [drawing 378], the “First cutting, dry substance” value (grass or lawns; 0.25 kg/ha) was 10.7 g, the “First cutting, growth height” value (grass or lawns; 0.25 kg/ha) was 26.0 cm and the “First cutting, dry substance relative” value (grass or lawns; 0.25 kg/ha) was 85.6. The “First cutting, growth height relative” value (grass or lawns; 0.25 kg/ha) was 101.9, the “Observations (color)” value (grass or lawns; 0.25 kg/ha) was “normal green” and the “First cutting, dry substance” value (grass or lawns; 0.5 kg/ha) was 8.6 g. For the same molecule, the “First cutting, growth height” value (grass or lawns; 0.5 kg/ha) was 24.0 cm, the “First cutting, dry substance relative” value (grass or lawns; 0.5 kg/ha) was 68.8 and the “First cutting, growth height relative” value (grass or lawns; 0.5 kg/ha) was 94.1. The “Observations (color)” value (grass or lawns; 0.5 kg/ha) was “normal green”, the “First cutting, dry substance” value (grass or lawns; 1.0 kg/ha) was 7.0 g and the “First cutting, growth height” value (grass or lawns; 1.0 kg/ha) was 19.0 cm. For the same molecule, the “First cutting, dry substance relative” value (grass or lawns; 1.0 kg/ha) was 56.0, the “First cutting, growth height relative” value (grass or lawns; 1.0 kg/ha) was 74.5 and the “Observations (color)” value (grass or lawns; 1.0 kg/ha) was “normal green”. The “First cutting, dry substance” value (grass or lawns; 2.0 kg/ha) was 4.8 g, the “First cutting, growth height” value (grass or lawns; 2.0 kg/ha) was 16.0 cm and the “First cutting, dry substance relative” value (grass or lawns; 2.0 kg/ha) was 38.4. For the same molecule, the “First cutting, growth height relative” value (grass or lawns; 2.0 kg/ha) was 62.7, the “Observations (color)” value (grass or lawns; 2.0 kg/ha) was “dark green” and the “First cutting, dry substance” value (grass or lawns; 4.0 kg/ha) was 3.1 g. For the same molecule, the “First cutting, growth height” value (grass or lawns; 4.0 kg/ha) was 10.5 cm, the “First cutting, dry substance relative” value (grass or lawns; 4.0 kg/ha) was 24.8 and the “First cutting, growth height relative” value (grass or lawns; 4.0 kg/ha) was 41.1. For the same molecule, the “Observations (color)” value (grass or lawns; 4.0 kg/ha) was “dark green”.

In the case of `Brc1ccc(N2N=NC3C4CC(C5N=NC45)C32)cc1` (centres unmarked) [drawing 379], the “First cutting, dry substance” value (grass or lawns; 0.25 kg/ha) was 12.8 g, the “First cutting, growth height” value (grass or lawns; 0.25 kg/ha) was 25.0 cm and the “First cutting, dry substance relative” value (grass or lawns; 0.25 kg/ha) was 102.4. For the same molecule, the “First cutting, growth height relative” value (grass or lawns; 0.25 kg/ha) was 98.0, the “Observations (color)” value (grass or lawns; 0.25 kg/ha) was “normal green” and the “First cutting, dry substance” value (grass or lawns; 0.5 kg/ha) was 11.4 g. The “First cutting, growth height” value (grass or lawns; 0.5 kg/ha) was 24.0 cm, the “First cutting, dry substance relative” value (grass or lawns; 0.5 kg/ha) was 91.2 and the “First cutting, growth height relative” value (grass or lawns; 0.5 kg/ha) was 94.1. The “First cutting, dry substance” value (grass or lawns; 1.0 kg/ha) was 8.4 g, the “First cutting, growth height” value (grass or lawns; 1.0 kg/ha) was 21.5 cm and the “First cutting, dry substance relative” value (grass or lawns; 1.0 kg/ha) was 67.2. The “First cutting, growth height relative” value (grass or lawns; 1.0 kg/ha) was 84.2, the “First cutting, dry substance” value (grass or lawns; 2.0 kg/ha) was 6.3 g and the “First cutting, growth height” value (grass or lawns; 2.0 kg/ha) was 18.0 cm. The “First cutting, chlorophyll content” value (grass or lawns; 2.0 kg/ha, control 1.33) was 1.40 g Ca + b/100 g TS, the “First cutting, dry substance relative” value (grass or lawns; 2.0 kg/ha) was 50.4 and the “First cutting, growth height relative” value (grass or lawns; 2.0 kg/ha) was 70.5. The “First cutting, dry substance” value (grass or lawns; 4.0 kg/ha) was 4.1 g, the “First cutting, growth height” value (grass or lawns; 4.0 kg/ha) was 12.5 cm and the “First cutting, dry substance relative” value (grass or lawns; 4.0 kg/ha) was 32.8. For the same molecule, the “First cutting, growth height relative” value (grass or lawns; 4.0 kg/ha) was 49.0.

`Clc1ccc(N2N=NC3C4CC(C5N=NC45)C32)cc1` (centres unmarked) [drawing 393] was tested, and the Growth height (soybeans; 3.0 kg/ha) was 15.0 cm, the Growth height (soybeans; 6.0 kg/ha) was 14.0 cm and the response vs control in vivo at 3000 g/ha (soybeans; 3.0 kg/ha) was 65.2%. The response vs control in vivo at 6000 g/ha (soybeans; 6.0 kg/ha) was 60.9%.

For `Clc1cccc(N2N=NC3C4CC(C5N=NC45)C32)c1` (centres unmarked) [drawing 394], the Growth height (soybeans; 3.0 kg/ha) was 17.5 cm, the Growth height (soybeans; 6.0 kg/ha) was 14.5 cm and the response vs control in vivo at 3000 g/ha (soybeans; 3.0 kg/ha) was 76.1%. The response vs control in vivo at 6000 g/ha (soybeans; 6.0 kg/ha) was 63%.

`Clc1ccc(N2N=NC3C4CC(C5NNC45)C32)cc1` (centres unmarked) [drawing 395] was tested, and the Growth height (soybeans; 3.0 kg/ha) was 13.5 cm, the Growth height (soybeans; 6.0 kg/ha) was 12.5 cm and the response vs control in vivo at 3000 g/ha (soybeans; 3.0 kg/ha) was 58.7%. It also gave a response vs control in vivo at 6000 g/ha (soybeans; 6.0 kg/ha) of 54.4%.
